Test results taken from PubChem BioAssay AID1963447 (Molecular Pharmacology Branch, DTP, NCI, 2024).
Where “and” joins values, the source holds several entries; their conditions need not be identical. Equal entries are not always repeated.

System: 885512-296-R-J2-PDC complex spheroid growth, % test/control
Assay: Anticancer human tumor 885512-296-R-J2-PDC patient-derived breast carcinoma cell line growth inhibition [Asc]
Settings: for viability, T/C: stronger effect = lower value
Summary of the method: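 Tumor cells were grown as complex spheroids with human endothelial cells (HUVEC) and human mesenchymal stem cells as stroma. Agents were tested alone and in combination, in half-log steps down from the clinical Cmax, or from 10 microM where Cmax was unknown.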

[1] = curve of first compound, second compound 0.1 µM
[2] = curve of first compound, second compound 0.316 µM
[3] = curve of first compound, second compound 1 µM
[4] = second compound 0.1 µM, first compound 0.00949 µM
[5] = second compound 0.1 µM, first compound 0.03 µM
[6] = second compound 0.1 µM, first compound 0.0949 µM
[7] = second compound 0.1 µM, first compound 0.3 µM
[8] = second compound 0.1 µM, first compound 0.949 µM
[9] = second compound 0.1 µM, first compound 3 µM
[10] = second compound 0.316 µM, first compound 0.00949 µM
[11] = second compound 0.316 µM, first compound 0.03 µM
[12] = second compound 0.316 µM, first compound 0.0949 µM
[13] = second compound 0.316 µM, first compound 0.3 µM
[14] = second compound 0.316 µM, first compound 0.949 µM
[15] = second compound 0.316 µM, first compound 3 µM
[16] = second compound 1 µM, first compound 0.00949 µM
[17] = second compound 1 µM, first compound 0.03 µM
[18] = second compound 1 µM, first compound 0.0949 µM
[19] = second compound 1 µM, first compound 0.3 µM
[20] = second compound 1 µM, first compound 0.949 µM
[21] = second compound 1 µM, first compound 3 µM
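Note: spheroids exposed to compounds for seven days.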
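Throughout, for viability, T/C: 100% = DMSO vehicle control wells.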

SMILES: CCN1C(C(=O)NC23CCC(C(=O)O)(CC2)CC3)C(c2cccc(Cl)c2F)C2(C(=O)Nc3cc(Cl)ccc32)C12CCCCC2 (configuration not stated) + CNC(C)C(=O)NC1CN(S(=O)(=O)c2cccc(S(=O)(=O)N3CCC4CCC(C(=O)NC(c5ccccc5)c5ccccc5)N4C(=O)C(NC(=O)C(C)NC)C3)c2)CCC2CCC(C(=O)NC(c3ccccc3)c3ccccc3)N2C1=O
- IC50 (curve of first compound, second compound 0.01 µM): > 3000 nM
- IC50 (curve of first compound, second compound 0.0316 µM): 2970 nM
- IC50 [1]: > 3000 nM
- IC50 [2]: > 3000 nM
- IC50 [3]: > 3000 nM
- viability, T/C (second compound 0.01 µM, first compound 0.00949 µM): 85.2%
- viability, T/C (second compound 0.01 µM, first compound 0.03 µM): 77.7%
- viability, T/C (second compound 0.01 µM, first compound 0.0949 µM): 87%
- viability, T/C (second compound 0.01 µM, first compound 0.3 µM): 84%
- viability, T/C (second compound 0.01 µM, first compound 0.949 µM): 67%
- viability, T/C (second compound 0.01 µM, first compound 3 µM): 53.5%
- viability, T/C (second compound 0.0316 µM, first compound 0.00949 µM): 103%
- viability, T/C (second compound 0.0316 µM, first compound 0.03 µM): 98.3%
- viability, T/C (second compound 0.0316 µM, first compound 0.0949 µM): 88.7%
- viability, T/C (second compound 0.0316 µM, first compound 0.3 µM): 97.2%
- viability, T/C (second compound 0.0316 µM, first compound 0.949 µM): 84.7%
- viability, T/C (second compound 0.0316 µM, first compound 3 µM): 49.4%
- viability, T/C [4]: 98.7%
- viability, T/C [5]: 107%
- viability, T/C [6]: 108%
- viability, T/C [7]: 104%
- viability, T/C [8]: 77.2%
- viability, T/C [9]: 51.7%
- viability, T/C [10]: 104%
- viability, T/C [11]: 103%
- viability, T/C [12]: 111%
- viability, T/C [13]: 97.9%
- viability, T/C [14]: 86%
- viability, T/C [15]: 57.8%
- viability, T/C [16]: 104%
- viability, T/C [17]: 118%
- viability, T/C [18]: 111%
- viability, T/C [19]: 101%
- viability, T/C [20]: 90%
- viability, T/C [21]: 60.3%

SMILES: Cc1nc(N2CCC3(CC2)COC(C)C3N)c(CO)nc1Sc1ccnc(N)c1Cl (configuration not stated) + Cc1c(S(C)(=O)=O)c(-c2cc(F)cc(N3CCN(c4ccc(NS(=O)(=O)c5ccc(NC(CCN6CCC(C(=O)OCCCP(=O)(O)O)CC6)CSc6ccccc6)c(S(=O)(=O)C(F)(F)F)c5)cc4)CC3)c2)c(-c2ccc(Cl)cc2)n1C(C)C
- IC50 [1]: 275 nM
- IC50 [2]: 275 nM
- IC50 [3]: 172 nM
- IC50 (curve of first compound, second compound 3.16 µM): 167 nM
- IC50 (curve of first compound, second compound 10 µM): > 3000 nM
- viability, T/C [4]: 83.7%
- viability, T/C [5]: 67.7%
- viability, T/C [6]: 58%
- viability, T/C [7]: 50.4%
- viability, T/C [8]: 42.1%
- viability, T/C [9]: 32.4%
- viability, T/C [10]: 76.5%
- viability, T/C [11]: 63.7%
- viability, T/C [12]: 62.7%
- viability, T/C [13]: 46.2%
- viability, T/C [14]: 42.8%
- viability, T/C [15]: 37%
- viability, T/C [16]: 76.7%
- viability, T/C [17]: 60.2%
- viability, T/C [18]: 59.1%
- viability, T/C [19]: 41.8%
- viability, T/C [20]: 42.6%
- viability, T/C [21]: 34.7%
- viability, T/C (second compound 3.16 µM, first compound 0.00949 µM): 94.5%
- viability, T/C (second compound 3.16 µM, first compound 0.03 µM): 67.4%
- viability, T/C (second compound 3.16 µM, first compound 0.0949 µM): 56.8%
- viability, T/C (second compound 3.16 µM, first compound 0.3 µM): 45.4%
- viability, T/C (second compound 3.16 µM, first compound 0.949 µM): 39.5%
- viability, T/C (second compound 3.16 µM, first compound 3 µM): 33.4%
- viability, T/C (second compound 10 µM, first compound 0.00949 µM): 117%
- viability, T/C (second compound 10 µM, first compound 0.03 µM): 110%
- viability, T/C (second compound 10 µM, first compound 0.0949 µM): 96.2%
- viability, T/C (second compound 10 µM, first compound 0.3 µM): 113%
- viability, T/C (second compound 10 µM, first compound 0.949 µM): 95.9%
- viability, T/C (second compound 10 µM, first compound 3 µM): 85.9%

SMILES: COc1c(OCCCN2CCOCC2)ccc2c3n(c(=NC(=O)c4cnc(N)nc4)nc12)CCN3
- viability, T/C (compound 0.00316 µM): 99.3% and 90.1% and 99%
- viability, T/C (compound 0.01 µM): 100% and 92.6% and 92%
- viability, T/C (compound 0.0316 µM): 86.8% and 80.5% and 89.4%
- viability, T/C (compound 0.1 µM): 74.3% and 76% and 89%
- viability, T/C (compound 0.316 µM): 43.6% and 43.9% and 56.3%
- viability, T/C (compound 1 µM): 6.01% and 5.98% and 9.51%
- IC50 (curve of compound): 249 nM and 255 nM and 370 nM

SMILES: CNC(C)C(=O)NC1CN(S(=O)(=O)c2cccc(S(=O)(=O)N3CCC4CCC(C(=O)NC(c5ccccc5)c5ccccc5)N4C(=O)C(NC(=O)C(C)NC)C3)c2)CCC2CCC(C(=O)NC(c3ccccc3)c3ccccc3)N2C1=O (configuration not stated) + CCN1C(C(=O)NC23CCC(C(=O)O)(CC2)CC3)C(c2cccc(Cl)c2F)C2(C(=O)Nc3cc(Cl)ccc32)C12CCCCC2
- IC50 (curve of first compound, second compound 0.03 µM): > 1000 nM
- IC50 (curve of first compound, second compound 0.0949 µM): > 1000 nM
- IC50 (curve of first compound, second compound 0.3 µM): > 1000 nM
- IC50 (curve of first compound, second compound 0.949 µM): > 1000 nM
- IC50 (curve of first compound, second compound 3 µM): < 3.16 nM
- viability, T/C (second compound 0.03 µM, first compound 0.00316 µM): 92.3%
- viability, T/C (second compound 0.03 µM, first compound 0.01 µM): 90.4%
- viability, T/C (second compound 0.03 µM, first compound 0.0316 µM): 99.8%
- viability, T/C (second compound 0.03 µM, first compound 0.1 µM): 94.2%
- viability, T/C (second compound 0.03 µM, first compound 0.316 µM): 126%
- viability, T/C (second compound 0.03 µM, first compound 1 µM): 109%
- viability, T/C (second compound 0.0949 µM, first compound 0.00316 µM): 77.6%
- viability, T/C (second compound 0.0949 µM, first compound 0.01 µM): 110%
- viability, T/C (second compound 0.0949 µM, first compound 0.0316 µM): 90.3%
- viability, T/C (second compound 0.0949 µM, first compound 0.1 µM): 112%
- viability, T/C (second compound 0.0949 µM, first compound 0.316 µM): 120%
- viability, T/C (second compound 0.0949 µM, first compound 1 µM): 115%
- viability, T/C (second compound 0.3 µM, first compound 0.00316 µM): 84.3%
- viability, T/C (second compound 0.3 µM, first compound 0.01 µM): 88.7%
- viability, T/C (second compound 0.3 µM, first compound 0.0316 µM): 91.6%
- viability, T/C (second compound 0.3 µM, first compound 0.1 µM): 93%
- viability, T/C (second compound 0.3 µM, first compound 0.316 µM): 103%
- viability, T/C (second compound 0.3 µM, first compound 1 µM): 112%
- viability, T/C (second compound 0.949 µM, first compound 0.00316 µM): 75.3%
- viability, T/C (second compound 0.949 µM, first compound 0.01 µM): 72.8%
- viability, T/C (second compound 0.949 µM, first compound 0.0316 µM): 76.6%
- viability, T/C (second compound 0.949 µM, first compound 0.1 µM): 87.6%
- viability, T/C (second compound 0.949 µM, first compound 0.316 µM): 91.9%
- viability, T/C (second compound 0.949 µM, first compound 1 µM): 86.6%
- viability, T/C (second compound 3 µM, first compound 0.00316 µM): 41.4%
- viability, T/C (second compound 3 µM, first compound 0.01 µM): 37.4%
- viability, T/C (second compound 3 µM, first compound 0.0316 µM): 49%
- viability, T/C (second compound 3 µM, first compound 0.1 µM): 59.5%
- viability, T/C (second compound 3 µM, first compound 0.316 µM): 59%
- viability, T/C (second compound 3 µM, first compound 1 µM): 62.6%
